Experimental data taken from US4285956A, “Xanthene and thioxanthene derivatives, compositions thereof and treatment therewith” (priority 1978, dated 1981).

Tests used:
[1] = Methylphenidate antagonism (mice biting corrugated paper); type: in vivo; settings: mice, i.p.; for ED50: Mus musculus, ip
Description: Methylphenidate antagonism (ED50 mg/kg i.p.)
Perspex observation cages without bottom and lid, consisting of 5 sections each measuring 12×25×30 cm. White corrugated paper. Mice, male, 18-25 g.
The test substance is given i.p. in the doses 0, 1/8, 1/32 and 1/128 of the determined "i.p. LD50". 3×2 mice are used for each dose level. Two or 24 hours after injection of test substance, methylphenidate, 60 mg/kg, is injected s.c. After administration of methylphenidate the mice are placed in the observation cages, 2 in each cage, where they remain for exactly 1 hour. The cages are placed on corrugated paper, the corrugations facing upwards. It is examined whether the mice have been biting the corrugated paper or not. […] If one or more of the control pairs have not been biting, the test has to be repeated on a new set of mice.
The result is stated in fractions: 0/3, 1/3, 2/3 and 3/3 where 0, 1, 2 and 3 are the number of pairs which have not been biting on receipt of the dose in question.
The results are calculated as the dose (ED50), which causes antagonism in 50% of the test animals.

[2] = Amphetamine antagonism (stereotypy in rats); type: in vivo; settings: Rattus norvegicus, ip, 24 h, read-out: Amphetamine antagonism ED50
[3] = Catalepsy wire mesh, rat, max.; type: in vivo, rats; settings: Rattus norvegicus, sc; rats, s.c., strongest effect within first 6 hours; read-out: Catalepsy wire mesh, rat, max. ED50
Description: Catalepsy wire mesh, rat, max. (ED50 mg/kg s.c.)
A vertical wire netting (50 cm×49 cm). The meshes (openings) of the netting are square (1 cm×1 cm). The wire diameter is 2 mm. Stop watch. Rats, male, 180-200 g.
The animals are labeled and used in groups of five. The test substance is injected subcutaneously (s.c.) (5 ml/kg) at 4 dose levels selected from the fixed dose scale.
The animals are placed in the middle of the vertical wire netting 60, 120, 180, 240, 300 and 360 minutes after injection of the test compound. The animals are considered cataleptic when they remain immobile during a period of 15 seconds. This cataleptic reaction is designated +. If the rats are "atonic" and passively slide down the wire mesh they are considered not cataleptic. If the animals climb up and down the wire mesh they are nor cataleptic. In both situations the designation - is used.

[4] = Neuroleptic effect: duration and strength (remarks of Table 2); type: in vivo; settings: in words; for Duration (remarks, words): duration of neuroleptic effect; for Strength of effect (remarks, words): strength of neuroleptic effect
Description: The pharmacological testing of the novel xanthones and thioxanthenes of Formula I consisted of standard and reliable tests. […]

[5] = methylphenidate 60 mg/kg s.c. 2 h after test substance, read-out: Methylphenidate antagonism ED50, 2 h
[6] = methylphenidate 60 mg/kg s.c. 24 h after test substance, read-out: Methylphenidate antagonism ED50, 24 h

Compound	ED50 [1, 5] [mg/kg]	ED50 [1, 6] [mg/kg]	ED50 [2] [mg/kg]	ED50 [3] [mg/kg]	Duration (remarks, words) [4]	Strength of effect (remarks, words) [4]	Methylphenidate antagonism ED50, 2 h ([1]; methylphenidate 60 mg/kg s.c. 2 h after test substance) [mg/kg]	Methylphenidate antagonism ED50, 24 h ([1]; methylphenidate 60 mg/kg s.c. 24 h after test substance) [mg/kg]
Fc1ccc2c(c1)Sc1ccc(C(F)(F)F)cc1C2=C1CCN(CC2CCOCO2)CC1 (centres unmarked) [Lu 14-130, 1-(1,3-Dioxan-4-ylmethyl)-4-(2-trifluoromethyl-6-fluoro-9-thioxanthenylidene)piperidine]	0.77	0.7	0.62	2.8	long acting	moderately strong		
1-(2-Oxazolidinon-3-yl)ethyl)-4-(2-fluoro-6-methyl-9-thioxanthenylidene)-piperidine [Lu-15-062]					short acting	moderately strong	0.51	> 40
O[C@H]1CC[C@H](CN2CCC(=C3c4ccc(F)cc4Sc4cc(F)ccc43)CC2)CC1 [Lu 15-062, 1-(trans-4-hydroxycyclohexylmethyl)-4-(3,6-di-fluoro-9-thioxanthenylidene)-piperidine]	0.77	> 10	0.85		short acting	moderately strong		
CC1(O)CCC(CN2CCC(=C3c4ccc(F)cc4Sc4ccc(C(F)(F)F)cc43)CC2)CC1 (centres unmarked) [Lu 15-048, 1-(4-hydroxy-4-methylcyclohexylmethyl)-4-(2-trifluoromethyl-6-fluoro-9-thioxanthenylidene)-piperidine]	1.3	0.13	< 0.31		long acting	strong		
Cc1ccc2c(c1)C(=C1CCN(C[C@H]3CC[C@H](O)CC3)CC1)c1ccc(F)cc1S2 [Lu 14-082, 1-(trans-4-hydroxycyclohexylmethyl)-4-(2-methyl-6-fluoro-9-thioxanthenylidene)-piperidine]	0.79	> 10			short acting	moderately strong		
CN(C)S(=O)(=O)c1ccc2c(c1)C(=C1CCN(C[C@H]3CC[C@H](O)CC3)CC1)c1ccc(F)cc1S2 [Lu 16-107, 1-(Trans-4-hydroxycyclohexylmethyl)-4-(2-dimethylsulfamoyl-6-fluoro-9-thioxanthenylidene)piperidine]	1.9	0.76		0.28	long acting	moderately strong		
O[C@@H]1CC[C@H](CN2CCC(=C3c4ccccc4Sc4ccc(Cl)cc43)CC2)C[C@H]1O (relative stereo) [Lu 15-041, 1-(3-trans-4-cis-dihydroxycyclohexylmethyl)-4-(2-chloro-9-thioxanthenylidene)piperidine]	0.62	3.6	< 0.31		moderately long acting	strong		
O[C@H]1CCCC[C@H]1CN1CCC(=C2c3ccc(F)cc3Sc3ccc(C(F)(F)F)cc32)CC1 (relative stereo) [Lu 15-138, 1-(cis-2-hydroxycyclohexylmethyl)-4-(2-trifluoromethyl-6-fluoro-9-thioxanthenylidene)-piperidine]	1.3	0.15	1.7		long acting	strong		
O[C@@H]1CC[C@H](CN2CCC(=C3c4ccc(F)cc4Sc4ccc(Cl)cc43)CC2)C[C@H]1O (relative stereo) [Lu 15-070, 1-(3-trans-4-cis-dihydroxycyclohexylmethyl)-4-(2-chloro-6-fluoro-9-thioxanthenylidene)-piperidine]	0.51	0.5			moderately long acting			
N[C@H]1CC[C@H](CN2CCC(=C3c4ccccc4Sc4ccc(Cl)cc43)CC2)CC1 [Lu 16-081]	0.5	~10			short acting	moderately strong		
OC1COC(CN2CCC(=C3c4ccccc4Sc4ccc(Cl)cc43)CC2)OC1 (centres unmarked) [Lu 14-140, 1-(5-hydroxy-1,3-dioxan-2-yl)methyl-4-(2-chloro-9-thioxanthenylidene)-piperidine]	0.77	> 40			short acting	strong		
